Experiments:
[1] = target: T1, 5-HT1A (Homo sapiens, UniProt P08908); test: NIMH PDSP radioligand competition binding, 5-HT1A
T1 sequence (P08908 1-422): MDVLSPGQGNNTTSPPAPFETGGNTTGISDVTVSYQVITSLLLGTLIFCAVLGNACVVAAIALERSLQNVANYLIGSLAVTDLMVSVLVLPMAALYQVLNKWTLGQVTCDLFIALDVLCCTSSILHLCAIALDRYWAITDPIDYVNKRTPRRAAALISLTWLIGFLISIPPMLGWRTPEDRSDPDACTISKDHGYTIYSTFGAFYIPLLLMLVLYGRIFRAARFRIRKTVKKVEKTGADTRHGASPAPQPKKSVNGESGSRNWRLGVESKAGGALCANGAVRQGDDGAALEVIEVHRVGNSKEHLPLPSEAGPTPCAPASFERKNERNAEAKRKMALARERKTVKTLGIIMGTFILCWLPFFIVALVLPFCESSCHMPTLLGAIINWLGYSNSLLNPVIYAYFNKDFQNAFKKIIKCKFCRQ

[2] = target: 5-HT1B (Homo sapiens, UniProt P28222); test: NIMH PDSP radioligand competition binding, 5-HT1B
[3] = target: 5-HT1D (Homo sapiens, UniProt P28221); test: NIMH PDSP radioligand competition binding, 5-HT1D
[4] = target: 5-HT7 (Homo sapiens, UniProt P34969); test: NIMH PDSP radioligand competition binding, 5-HT7
[5] = target: T2, α1A (Homo sapiens, UniProt P35348); test: NIMH PDSP radioligand competition binding, α1A
T2 sequence (P35348 1-466): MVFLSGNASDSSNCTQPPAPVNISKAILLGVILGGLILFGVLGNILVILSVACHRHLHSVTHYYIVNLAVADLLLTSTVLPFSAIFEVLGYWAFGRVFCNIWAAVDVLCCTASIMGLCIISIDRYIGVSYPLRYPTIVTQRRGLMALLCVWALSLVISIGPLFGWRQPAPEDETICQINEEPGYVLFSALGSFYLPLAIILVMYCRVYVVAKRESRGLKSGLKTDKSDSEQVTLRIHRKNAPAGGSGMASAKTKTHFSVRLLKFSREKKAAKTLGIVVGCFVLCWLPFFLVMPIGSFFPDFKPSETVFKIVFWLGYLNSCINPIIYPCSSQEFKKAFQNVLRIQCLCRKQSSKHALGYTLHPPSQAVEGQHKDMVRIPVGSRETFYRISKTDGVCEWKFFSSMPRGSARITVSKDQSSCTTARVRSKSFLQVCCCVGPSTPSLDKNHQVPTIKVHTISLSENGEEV

[6] = target: T3, α1B (Homo sapiens, UniProt P35368); test: NIMH PDSP radioligand competition binding, α1B
T3 sequence (P35368 1-520): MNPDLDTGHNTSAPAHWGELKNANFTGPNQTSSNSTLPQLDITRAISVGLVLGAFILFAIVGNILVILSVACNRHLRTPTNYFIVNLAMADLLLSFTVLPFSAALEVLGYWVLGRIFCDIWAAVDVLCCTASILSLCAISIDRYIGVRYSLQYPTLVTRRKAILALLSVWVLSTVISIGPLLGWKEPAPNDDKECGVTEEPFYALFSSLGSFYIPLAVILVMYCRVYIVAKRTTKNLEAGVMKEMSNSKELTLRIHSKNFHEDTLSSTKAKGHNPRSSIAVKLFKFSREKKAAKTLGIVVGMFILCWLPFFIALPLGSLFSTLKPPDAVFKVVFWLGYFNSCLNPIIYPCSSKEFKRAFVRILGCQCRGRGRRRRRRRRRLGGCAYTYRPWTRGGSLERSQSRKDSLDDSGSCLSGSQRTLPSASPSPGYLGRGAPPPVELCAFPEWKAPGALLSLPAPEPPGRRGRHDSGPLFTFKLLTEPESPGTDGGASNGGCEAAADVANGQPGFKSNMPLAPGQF

[7] = target: T4, α2A (Homo sapiens, UniProt P08913); test: NIMH PDSP radioligand competition binding, α2A
T4 sequence (P08913 1-465): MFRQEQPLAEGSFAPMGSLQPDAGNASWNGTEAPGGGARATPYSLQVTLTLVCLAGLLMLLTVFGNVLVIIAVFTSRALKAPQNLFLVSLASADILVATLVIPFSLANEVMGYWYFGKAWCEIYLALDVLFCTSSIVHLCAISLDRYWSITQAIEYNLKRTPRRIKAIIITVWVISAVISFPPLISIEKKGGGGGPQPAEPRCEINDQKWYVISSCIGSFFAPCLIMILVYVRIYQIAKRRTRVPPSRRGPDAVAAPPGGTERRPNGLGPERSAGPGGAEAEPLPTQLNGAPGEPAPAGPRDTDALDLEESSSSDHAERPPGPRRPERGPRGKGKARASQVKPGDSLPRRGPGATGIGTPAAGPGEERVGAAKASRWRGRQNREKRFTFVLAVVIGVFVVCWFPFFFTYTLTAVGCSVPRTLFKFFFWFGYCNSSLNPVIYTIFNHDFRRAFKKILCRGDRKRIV

[8] = target: T5, α2B (Homo sapiens, UniProt P18089); test: NIMH PDSP radioligand competition binding, α2B
T5 sequence (P18089 1-450): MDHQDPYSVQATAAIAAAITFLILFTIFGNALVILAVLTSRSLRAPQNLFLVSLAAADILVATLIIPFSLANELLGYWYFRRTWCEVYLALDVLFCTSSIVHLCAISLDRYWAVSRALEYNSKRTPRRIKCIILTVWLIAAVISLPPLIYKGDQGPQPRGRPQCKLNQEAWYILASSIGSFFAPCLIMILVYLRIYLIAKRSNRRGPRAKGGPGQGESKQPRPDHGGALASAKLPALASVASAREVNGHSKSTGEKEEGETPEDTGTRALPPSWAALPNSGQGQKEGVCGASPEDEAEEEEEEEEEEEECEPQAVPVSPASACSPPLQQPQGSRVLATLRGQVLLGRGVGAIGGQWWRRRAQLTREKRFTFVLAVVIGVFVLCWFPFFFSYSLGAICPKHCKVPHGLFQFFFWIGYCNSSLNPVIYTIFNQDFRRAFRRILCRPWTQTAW

[9] = target: norepinephrine transporter (NET) (Homo sapiens, UniProt P23975); test: NIMH PDSP radioligand competition binding, NET
[10] = target: D1 (Homo sapiens, UniProt P21728); test: NIMH PDSP radioligand competition binding, D1
[11] = target: D5 (Homo sapiens, UniProt P21918); test: NIMH PDSP radioligand competition binding, D5
[12] = target: H1 (Homo sapiens, UniProt P35367); test: NIMH PDSP radioligand competition binding, H1
[13] = target: H3 (Cavia porcellus, UniProt Q9JI35); test: NIMH PDSP radioligand competition binding, H3; design: species or system Guinea pig
[14] = target: σ1 (Rattus norvegicus, UniProt Q9R0C9); test: NIMH PDSP radioligand competition binding, σ1
[15] = Binding Affinity (Ki, nM), [3H]SCH23390, cloned human receptor

Sequence of 5-HT1B (P28222 whole entry): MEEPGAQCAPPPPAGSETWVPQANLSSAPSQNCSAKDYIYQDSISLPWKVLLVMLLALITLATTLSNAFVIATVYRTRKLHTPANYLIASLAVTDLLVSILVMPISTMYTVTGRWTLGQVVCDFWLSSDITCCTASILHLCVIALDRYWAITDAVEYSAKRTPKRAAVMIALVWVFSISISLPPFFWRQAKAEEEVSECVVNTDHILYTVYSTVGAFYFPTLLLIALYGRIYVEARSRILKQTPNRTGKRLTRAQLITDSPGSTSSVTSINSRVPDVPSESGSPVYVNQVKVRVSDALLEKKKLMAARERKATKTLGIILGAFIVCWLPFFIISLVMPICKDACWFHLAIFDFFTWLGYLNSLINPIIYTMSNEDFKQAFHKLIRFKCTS
Sequence of D5 (P21918 whole entry): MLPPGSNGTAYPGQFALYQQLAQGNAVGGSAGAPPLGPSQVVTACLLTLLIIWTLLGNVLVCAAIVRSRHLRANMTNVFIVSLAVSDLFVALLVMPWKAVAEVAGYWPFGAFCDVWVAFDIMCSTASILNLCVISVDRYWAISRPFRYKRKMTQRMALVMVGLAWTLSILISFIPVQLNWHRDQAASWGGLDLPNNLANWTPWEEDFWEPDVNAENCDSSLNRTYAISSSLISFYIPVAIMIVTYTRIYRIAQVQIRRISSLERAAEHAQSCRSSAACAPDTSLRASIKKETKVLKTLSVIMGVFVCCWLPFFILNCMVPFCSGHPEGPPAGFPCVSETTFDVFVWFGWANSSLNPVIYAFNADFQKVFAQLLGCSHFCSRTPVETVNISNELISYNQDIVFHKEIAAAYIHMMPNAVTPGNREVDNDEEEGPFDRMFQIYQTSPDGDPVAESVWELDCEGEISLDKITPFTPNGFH
Sequence of 5-HT7 (P34969 whole entry): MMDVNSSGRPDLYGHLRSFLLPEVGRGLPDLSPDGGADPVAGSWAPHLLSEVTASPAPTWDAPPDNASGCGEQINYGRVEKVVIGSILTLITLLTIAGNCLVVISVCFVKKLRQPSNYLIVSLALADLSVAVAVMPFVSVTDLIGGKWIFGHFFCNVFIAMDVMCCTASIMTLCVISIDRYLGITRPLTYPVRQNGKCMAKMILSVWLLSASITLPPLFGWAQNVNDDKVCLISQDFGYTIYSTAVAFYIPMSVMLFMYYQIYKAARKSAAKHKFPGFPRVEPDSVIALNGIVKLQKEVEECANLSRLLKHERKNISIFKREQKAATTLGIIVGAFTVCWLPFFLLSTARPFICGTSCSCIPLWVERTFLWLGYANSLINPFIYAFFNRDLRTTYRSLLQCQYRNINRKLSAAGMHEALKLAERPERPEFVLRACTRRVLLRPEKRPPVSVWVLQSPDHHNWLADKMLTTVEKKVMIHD
Sequence of H3 (Q9JI35 whole entry): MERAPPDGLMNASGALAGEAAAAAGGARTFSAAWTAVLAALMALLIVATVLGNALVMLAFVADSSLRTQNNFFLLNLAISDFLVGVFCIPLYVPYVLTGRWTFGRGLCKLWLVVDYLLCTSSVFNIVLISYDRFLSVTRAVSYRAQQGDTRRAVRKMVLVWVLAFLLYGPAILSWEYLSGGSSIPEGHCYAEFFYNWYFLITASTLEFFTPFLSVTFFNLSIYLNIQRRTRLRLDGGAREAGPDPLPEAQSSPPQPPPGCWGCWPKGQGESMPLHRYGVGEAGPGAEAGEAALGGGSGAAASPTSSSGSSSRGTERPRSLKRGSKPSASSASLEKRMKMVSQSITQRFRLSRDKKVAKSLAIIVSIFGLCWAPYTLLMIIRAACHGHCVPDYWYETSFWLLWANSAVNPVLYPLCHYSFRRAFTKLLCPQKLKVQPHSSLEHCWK
Sequence of H1 (P35367 whole entry): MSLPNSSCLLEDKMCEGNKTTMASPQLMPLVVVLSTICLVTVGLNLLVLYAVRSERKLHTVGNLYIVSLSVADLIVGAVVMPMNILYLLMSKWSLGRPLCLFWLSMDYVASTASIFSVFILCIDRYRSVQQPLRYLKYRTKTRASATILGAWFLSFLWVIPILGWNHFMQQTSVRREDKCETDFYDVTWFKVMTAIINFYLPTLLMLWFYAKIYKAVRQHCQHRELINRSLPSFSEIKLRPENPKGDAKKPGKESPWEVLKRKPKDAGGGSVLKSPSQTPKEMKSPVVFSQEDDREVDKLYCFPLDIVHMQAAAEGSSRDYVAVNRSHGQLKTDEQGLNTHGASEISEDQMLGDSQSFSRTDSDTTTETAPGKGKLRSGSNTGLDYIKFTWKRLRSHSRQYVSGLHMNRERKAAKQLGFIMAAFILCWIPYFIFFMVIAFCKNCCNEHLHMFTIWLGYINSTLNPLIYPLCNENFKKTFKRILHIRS
Sequence of σ1 (Q9R0C9 whole entry): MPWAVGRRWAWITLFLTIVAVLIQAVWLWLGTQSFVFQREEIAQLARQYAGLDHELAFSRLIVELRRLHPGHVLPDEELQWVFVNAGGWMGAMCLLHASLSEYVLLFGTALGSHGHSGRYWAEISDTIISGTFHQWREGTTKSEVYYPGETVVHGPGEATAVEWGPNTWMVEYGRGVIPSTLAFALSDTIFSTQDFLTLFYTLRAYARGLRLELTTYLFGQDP
Sequence of norepinephrine transporter (NET) (P23975 whole entry): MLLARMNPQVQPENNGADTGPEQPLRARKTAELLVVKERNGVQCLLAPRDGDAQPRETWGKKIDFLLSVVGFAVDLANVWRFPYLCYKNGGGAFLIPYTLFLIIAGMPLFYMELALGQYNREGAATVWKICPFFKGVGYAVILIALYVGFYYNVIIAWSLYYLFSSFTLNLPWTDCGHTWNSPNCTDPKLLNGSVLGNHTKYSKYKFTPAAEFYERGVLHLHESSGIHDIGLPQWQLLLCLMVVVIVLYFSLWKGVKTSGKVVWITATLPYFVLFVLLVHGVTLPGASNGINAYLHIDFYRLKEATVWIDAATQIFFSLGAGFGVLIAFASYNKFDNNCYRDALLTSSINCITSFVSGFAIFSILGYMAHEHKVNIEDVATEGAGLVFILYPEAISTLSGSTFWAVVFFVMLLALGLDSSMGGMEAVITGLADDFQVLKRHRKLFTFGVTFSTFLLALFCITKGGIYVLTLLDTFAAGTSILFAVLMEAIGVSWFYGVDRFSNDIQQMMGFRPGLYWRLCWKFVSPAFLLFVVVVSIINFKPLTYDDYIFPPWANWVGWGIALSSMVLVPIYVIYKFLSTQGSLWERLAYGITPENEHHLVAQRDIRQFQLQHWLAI
Sequence of 5-HT1D (P28221 whole entry): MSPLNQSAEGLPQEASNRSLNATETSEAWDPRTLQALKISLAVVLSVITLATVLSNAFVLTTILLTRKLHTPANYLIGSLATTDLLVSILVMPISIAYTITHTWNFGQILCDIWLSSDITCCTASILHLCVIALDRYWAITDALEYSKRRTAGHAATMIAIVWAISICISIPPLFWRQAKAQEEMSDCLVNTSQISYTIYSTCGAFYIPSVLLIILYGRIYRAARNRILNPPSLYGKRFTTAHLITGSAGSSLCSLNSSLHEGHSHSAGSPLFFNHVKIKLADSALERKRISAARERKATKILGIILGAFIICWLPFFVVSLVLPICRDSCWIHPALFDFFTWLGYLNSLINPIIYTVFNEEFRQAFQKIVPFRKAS
Sequence of D1 (P21728 whole entry): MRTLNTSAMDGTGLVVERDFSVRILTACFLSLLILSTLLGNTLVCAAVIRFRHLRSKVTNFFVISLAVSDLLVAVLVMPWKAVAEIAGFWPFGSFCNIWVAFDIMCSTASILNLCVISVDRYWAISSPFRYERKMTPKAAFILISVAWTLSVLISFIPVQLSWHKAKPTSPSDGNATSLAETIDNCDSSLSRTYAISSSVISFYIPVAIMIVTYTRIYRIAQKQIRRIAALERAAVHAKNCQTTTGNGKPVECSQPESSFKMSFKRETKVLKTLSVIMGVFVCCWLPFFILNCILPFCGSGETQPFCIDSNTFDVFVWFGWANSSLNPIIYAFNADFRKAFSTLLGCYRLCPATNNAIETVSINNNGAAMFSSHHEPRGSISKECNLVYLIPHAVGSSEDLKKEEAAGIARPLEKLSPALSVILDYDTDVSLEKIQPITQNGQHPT

| SMILES | Ki [1] [nM] | Ki [2] [nM] | Ki [3] [nM] | Ki [4] [nM] | Ki [5] [nM] | Ki [6] [nM] | Ki [7] [nM] | Ki [8] [nM] | Ki [9] [nM] | Ki [10, 15] [nM] | Ki [11, 15] [nM] | Ki [12] [nM] | Ki [13] [nM] | Ki [14] [nM] | σ1 affinity, fold higher than the parent compound ([14]; relative to DALT) [fold] | Ki ([10]; Ki value, bound stated) [nM] | Ki ([11]; Ki value, bound stated) [nM] |
| --- | --- | --- | --- | --- | --- | --- | --- | --- | --- | --- | --- | --- | --- | --- | --- | --- | --- |
| C=CCN(CC=C)CCc1c[nH]c2cccc(OC(C)=O)c12 [4-AcO-DALT, 4-acetoxy-N,N-diallyltryptamine] | 383 | > 10000 | 801 | 724 | > 10000 | > 10000 | 342 | 170 | > 10000 | > 10000 | > 10000 | 353 | > 10000 | 299 |  |  |  |
| C=CCN(CC=C)CCc1c(C)[nH]c2ccc(OC)cc12 [5-MeO-2-Me-DALT, 5-methoxy-2-methyl-N,N-diallyltryptamine] | 267 | 2270 | 900 | > 10000 | 1200 | > 10000 | 189 | 335 | > 10000 | > 10000 | > 10000 | 847 | 1130 | 427 |  |  |  |
| C=CCN(CC=C)CCc1c(C)[nH]c2ccc(F)cc12 [5-F-2-Me-DALT, 5-fluoro-2-methyl-N,N-diallyltryptamine] | 318 | 2010 | 1590 | 493 | 1570 | > 10000 | 53 | 108 | > 10000 | > 10000 | > 10000 | 435 | 1400 | 531 |  |  |  |
| C=CCN(CC=C)CCc1c[nH]c2c(CC)cccc12 [7-Et-DALT, 7-ethyl-N,N-diallyltryptamine] | 1010 | > 10000 | 2690 | > 10000 | > 10000 | > 10000 | 141 | 489 | 1880 | > 10000 | > 10000 | 913 | > 10000 | 22 | ~5 |  |  |
| C=CCN(CC=C)CCc1c[nH]c2cccc(O)c12 [4-HO-DALT, 4-hydroxy-N,N-diallyltryptamine] | 319 | 2490 | 693 | 600 | > 10000 | > 10000 | 1210 | > 10000 | > 10000 | > 10000 | > 10000 | > 10000 | > 10000 | 2760 |  |  |  |
| C=CCN(CC=C)CCc1c(-c2ccccc2)[nH]c2ccccc12 [2-Ph-DALT, 2-phenyl-N,N-diallyltryptamine] | 402 | 273 | 204 | > 10000 | 75 | 904 | 85 | 78 | 420 | 2790 | 2000 | 79 | > 10000 | > 10000 |  | < 10000 | < 10000 |
